Test results taken from patent US11459327B1, “Cycloalkyl and hetero-cycloalkyl inhibitors, preparation methods therefor, and use thereof” (Suzhou Zelgen Biopharmaceuticals Co., Ltd., priority 2019, dated 2022).

Columns and labels:
[1] = test system: A549(KRAS^G12S mutation) cells; experiment: Cell assay of antiproliferative activity (Celltiter-Glo, 5 days) against A549 cells; type: cell-based; conditions: 5 days incubation
Procedure: (§1) Cell assay of antiproliferative activity of compounds against NCI-H358(KRAS^G12C mutation) and A549(KRAS^G12S mutation) cells.
(§2) 40 μl phosphate buffer was added to the outer wells of the 384 microplate, and 40 μl cell suspension to be tested was added to the other wells. Then the microplate was incubated in a carbon dioxide incubator overnight.
(§3) The compounds to be tested were gradiently diluted, each compound was performed 10 concentration gradients (diluted from 50 μM to 0.003 μM) and added 100 nL to the corresponding wells in the microplate. After addition, 40 μl of phosphate buffer was added to each well in rows A and P and columns 1 and 24, and then the microplate was incubated in a carbon dioxide incubator for 5 days.
(§4) 20 μL of Promega Celltiter-Glo reagent was added to each well of the microplate, and then the luminescence signal was stabilized by oscillating at room temperature for 10 min. Then PekinElmer Envision multi-label analyzer was used to read.
(§5) Finally, GraphPad Prism software was used to calculate the IC50 value of the compound and the fitting curve was drawn.
(§6) Anti-proliferative activity of the compounds of the present invention against NCI-H358(KRAS^G12C mutation) and A549(KRAS^G12S mutation) cells were shown in Table 1.

[2] = test system: NCI-H358(KRAS^G12C mutation) cells; experiment: Cell assay of antiproliferative activity (Celltiter-Glo, 5 days) against NCI-H358 cells; type: cell-based; conditions: 5 days incubation
Procedure: as §1, §2, §3, §4, §5, §6

IC50 ([1]; Homo sapiens, 120 h) [nM] | IC50 ([2]; Homo sapiens, NCI-H358, 120 h) [nM] | SMILES | IC50 [2] [nM] | IC50 [1] [nM]
7100 | 220 | C=CC(=O)N1CCN(c2nc(OC[C@@H](COC)N(C)C3CCC3)nc3c2CCN(c2cccc4cccc(C)c24)C3)CC1CC#N (stereo partly drawn) [Example 1, 2-(1-acroloyl-4-(2-((R)-2-(cyclobutyl(methyl)amino)-3-methoxypropoxy)-7-(8-methylnaphthalen-1-yl)-5,6,7,8-tetrahydropyrido[3,4-d]pyrimidin-4-yl)piperazin-2-yl) acetonitrile] | – | –
4300 | 7.8 | C=CC(=O)N1CCN(c2nc(OCC3(CN(C)C)CC3)nc3c2CCN(c2cccc4cccc(Cl)c24)C3)CC1CC#N (stereo not drawn) [Example 2, 2-(1-acroloyl-4-(7-(8-chloronaphthalen-1-yl)-2-((1-((dimethylamino)methyl)cyclopropyl)methoxyl)-5,6,7,8-tetrahydropyrido[3,4-d]pyrimidin-4-yl)piperazin-2-yl) acetonitrile] | – | –
7100 | 39 | C=CC(=O)N1CCN(c2nc(OCC3(CN(C)C)CCC3)nc3c2CCN(c2cccc4cccc(Cl)c24)C3)CC1CC#N (stereo not drawn) [Example 3, 2-(1-acroloyl-4-(7-(8-chloronaphthalen-1-yl)-2-((1-((dimethylamino)methyl)cyclobutyl)methoxyl)-5,6,7,8-tetrahydropyrido[3,4-d]pyrimidin-4-yl)piperazin-2-yl) acetonitrile] | – | –
9500 | – | C=CC(=O)N1CCN(c2nc(OCCN(C)CC3(F)CC3)nc3c2CCN(c2cccc4cccc(C)c24)C3)CC1CC#N (stereo not drawn) [Example 4] | 210 | –
7100 | 60 | C=CC(=O)N1CCN(c2nc(OCCN(CCOC)C3CCC3)nc3c2CCN(c2cccc4cccc(Cl)c24)C3)CC1CC#N (stereo not drawn) [Example 5] | – | –
9900 | 110 | C=CC(=O)N1CCN(c2nc(OCCN(C)CC3CC3(F)F)nc3c2CCN(c2cccc4cccc(Cl)c24)C3)CC1CC#N (stereo not drawn) [Example 6] | – | –
7040 | 130 | C=CC(=O)N1CCN(c2nc(OC[C@H](CC)N(C)C3CCC3)nc3c2CCN(c2cccc4cccc(Cl)c24)C3)CC1CC#N (stereo partly drawn) [Example 8, 2-(1-acroloyl-4-(7-(8-chloronaphthalen-1-yl)-2-((S)-2-(cyclobutyl (methyl)amino)butyloxy)-5,6,7,8-tetrahydropyrido[3,4-d]pyrimidin-4-yl)piperazin-2-yl) acetonitrile] | – | –
17700 | 160 | C=CC(=O)N1CCN(c2nc(OC[C@H](C(C)C)N(C)C3CCC3)nc3c2CCN(c2cccc4cccc(Cl)c24)C3)CC1CC#N (stereo partly drawn) [Example 9, 2-(1-acroloyl-4-(7-(8-chloronaphthalen-1-yl)-2-((S)-2-(cyclobutyl(methyl)amino)-3-methylbutyloxy)-5,6,7,8-tetrahydropyrido[3,4-d]pyrimidin-4-yl)piperazin-2-yl) acetonitrile] | – | –
17400 | 6500 | C=CC(=O)N1CCN(c2nc(OCCN(CC(F)(F)F)C3CCC3)nc3c2CCN(c2cccc4cccc(Cl)c24)C3)CC1CC#N (stereo not drawn) [Example 10, 2-(1-acroloyl-4-(7-(8-chloronaphthalen-1-yl)-2-(2-(cyclobutyl(2,2,2-trifluoroethyl)amino)ethoxy)-5,6,7,8-tetrahydropyrido[3,4-d]pyrimidin-4-yl)piperazin-2-yl) acetonitrile] | – | –
3200 | 110 | C=C(F)C(=O)N1CCN(c2nc(OCCN(C)C3CCC3)nc3c2CCN(c2cccc4cccc(Cl)c24)C3)CC1CC#N (stereo not drawn) [Example 11, 2-(4-(7-(8-chloronaphthalen-1-yl)-2-(2-(cyclobutyl(methyl)amino)ethoxy)-5,6,7,8-tetrahydropyrido[3,4-d]pyrimidin-4-yl)-1-(2-fluoroacroloyl)piperazin-2-yl) acetonitrile] | – | –
2300 | 140 | C=C(F)C(=O)N1CCN(c2nc(OC[C@H](C)N(C)C3CCC3)nc3c2CCN(c2cccc4cccc(Cl)c24)C3)CC1CC#N (stereo partly drawn) [Example 12] | – | –
13500 | 90 | C=CC(=O)N1CCN(c2nc(O[C@@H]3CCC[C@@H]3N(C)C)nc3c2CCN(c2cccc4cccc(Cl)c24)C3)CC1CC#N (stereo partly drawn) [Example 15, 2-(1-acroloyl-4-(7-(8-chloronaphthalen-1-yl)-2-(((cis)-2-(dimethylamino)cyclopentyl)oxy)-5,6,7,8-tetrahydropyrido[3,4-d]pyrimidin-4-yl)piperazin-2-yl) acetonitrile] | – | –
– | – | C=CC(=O)N1CCN(c2nc(OCC3(CN(C)C)COC3)nc3c2CCN(c2cccc4cccc(Cl)c24)C3)CC1CC#N (stereo not drawn) [Example 19, 2-(1-acroloyl-4-(7-(8-chloronaphthalen-1-yl)-2-((3-((dimethylamino)methyl)oxetan-3-yl)methoxyl)-5,6,7,8-tetrahydropyrido[3,4-d]pyrimidin-4-yl)piperazin-2-yl) acetonitrile] | 4.6 | 8900
7700 | 870 | C=CC(=O)N1CCN(c2nc(OCC3(COC)CC3)nc3c2CCN(c2cccc4cccc(Cl)c24)C3)CC1CC#N (stereo not drawn) [Example 20, 2-(1-acroloyl-4-(7-(8-chloronaphthalen-1-yl)-2-((1-(methoxymethyl)cyclopropyl)methoxyl)-5,6,7,8-tetrahydropyrido[3,4-d]pyrimidin-4-yl)piperazin-2-yl) acetonitrile] | – | –
7800 | 27 | C=CC(=O)N1CCN(c2nc(OCCN(C)C3CCC3)nc3c2CCN(c2cccc4ccc(F)c(C)c24)C3)CC1CC#N (stereo not drawn) [Example 21, 2-(1-acroloyl-4-(2-(2-(cyclobutyl(methyl)amino)ethyoxyl)-7-(7-fluoro-8-methylnaphthalen-1-yl)-5,6,7,8-tetrahydropyrido[3,4-d]pyrimidin-4-yl)piperazin-2-yl) acetonitrile] | – | –
2200 | 91 | C=C(F)C(=O)N1CCN(c2nc(OCCN(C)C3CCC3)nc3c2CCN(c2cccc4ccc(F)c(C)c24)C3)CC1CC#N (stereo not drawn) [Example 22, 2-(4-(2-(2-(cyclobutyl(methyl)amino)ethyoxyl)-7-(7-fluoro-8-methylnaphthalen-1-yl)-5,6,7,8-tetrahydropyrido[3,4-d]pyrimidin-4-yl)-1-(2-fluoroacroloyl)piperazin-2-yl) acetonitrile] | – | –
11500 | 170 | C=CC(=O)N1CCN(c2nc(OCCN(C)C3CC3)nc3c2CCN(c2cccc4cccc(C)c24)C3)CC1CC#N (stereo not drawn) [Example 70, 2-(1-acroloyl-4-(2-(2-((cyclopropyl)(methyl)amino)ethoxy)-7-(8-methylnaphthalen-1-yl)-5,6,7,8-tetrahydropyrido[3,4-d]pyrimidin-4-yl)piperazin-2-yl) acetonitrile] | – | –
– | – | C=CC(=O)N1CCN(c2nc(OC[C@H](C)N(C)C3CCC3)nc3c2CCN(c2cccc4cccc(C)c24)C3)C[C@@H]1CC#N [Example 91A, 2-((S)-1-acroloyl-4-(2-((S)-2-(cyclobutyl(methyl)amino)propoxy)-7-(8-methylnaphthalen-1-yl)-5,6,7,8-tetrahydropyrido[3,4-d]pyrimidin-4-yl)piperazin-2-yl) acetonitrile] | < 30 | –
– | – | C=CC(=O)N1CCN(c2nc(OC[C@H](C)N(C)C3CCC3)nc3c2CCN(c2cccc4cccc(C)c24)C3)C[C@H]1CC#N [Example 91B, 2-((R)-1-acroloyl-4-(2-((S)-2-(cyclobutyl(methyl)amino)propoxy)-7-(8-methylnaphthalen-1-yl)-5,6,7,8-tetrahydropyrido[3,4-d]pyrimidin-4-yl)piperazin-2-yl) acetonitrile] | < 1000 | –
– | < 100 | C=CC(=O)N1CCN(c2nc(OC[C@@H](C)N(C)C3CCC3)nc3c2CCN(c2cccc4cccc(C)c24)C3)CC1CC#N (stereo partly drawn) [Example 92, 2-(1-acroloyl-4-(2-((R)-2-(cyclobutyl(methyl)amino)propoxy)-7-(8-methylnaphthalen-1-yl)-5,6,7,8-tetrahydropyrido[3,4-d]pyrimidin-4-yl)piperazin-2-yl) acetonitrile] | – | –
– | 6260 | C=CC(=O)N1CCN(c2nc(OCCN(C)CC3CC3)nc3c2CCN(c2cccc(F)c2C(F)(F)F)C3)CC1 [Example 95] | – | –
– | – | C=C(F)C(=O)N1CCN(c2nc(OCC3(CN(C)C)CC3)nc3c2C[C@H](C)N(c2cccc4ccc(F)c(Cl)c24)C3)C[C@@H]1CC#N [Example 96A, 2-((S)-4-((S)-7-(8-chloro-7-fluoronaphthalen-1-yl)-2-((1-((dimethylamino)methyl)cyclopropyl)methoxy)-6-methyl-5,6,7,8-tetrahydropyrido[3,4-d]pyrimidin-4-yl)-1-(2-fluoroacroloyl)piperazin-2-yl) acetonitrile] | 191 | –
– | – | C=C(F)C(=O)N1CCN(c2nc(OCC3(CN(C)C)CC3)nc3c2C[C@@H](C)N(c2cccc4ccc(F)c(Cl)c24)C3)C[C@@H]1CC#N [Example 96B, 2-((S)-4-((R)-7-(8-chloro-7-fluoronaphthalen-1-yl)-2-((1-((dimethylamino)methyl)cyclopropyl)methoxy)-6-methyl-5,6,7,8-tetrahydropyrido[3,4-d]pyrimidin-4-yl)-1-(2-fluoroacroloyl)piperazin-2-yl) acetonitrile] | 5 | –

SMILES | IC50 ([1]; Homo sapiens, 120 h) [nM] | IC50 ([2]; Homo sapiens, NCI-H358, 120 h) [nM] | IC50 [2] [nM] | IC50 [1] [nM]
C=CC(=O)N1CCN(c2nc(OCCN(C)C3COC3)nc3c2CCN(c2cccc4cccc(C)c24)C3)CC1CC#N (stereo not drawn) [Example 7, 2-(1-acroloyl-4-(2-(2-(methyl(cyclobutoxy-3-yl)amino)ethyoxyl)-7-(8-methylnaphthalen-1-yl)-5,6,7,8-tetrahydropyrido[3,4-d]pyrimidin-4-yl)piperazin-2-yl) acetonitrile] | 8200 | 72 | – | –
